The results in this text go back to patent publication US20220324865A1 (Bayer Aktiengesellschaft, priority 2018, published 2022).

SMILES strings stand for the structures.

As a reminder, the IC50 is the concentration at which inhibition is half-maximal.

The target in this assay is T1, human EP3 receptor (Homo sapiens, UniProt P43115).
T1 construct: expressed in transfected cells; host or cells: CHO K1 (Chinese Hamster Ovary), stably co-transfected with Galpha16 and mitochondrial clytin
T1 sequence (P43115 1-390): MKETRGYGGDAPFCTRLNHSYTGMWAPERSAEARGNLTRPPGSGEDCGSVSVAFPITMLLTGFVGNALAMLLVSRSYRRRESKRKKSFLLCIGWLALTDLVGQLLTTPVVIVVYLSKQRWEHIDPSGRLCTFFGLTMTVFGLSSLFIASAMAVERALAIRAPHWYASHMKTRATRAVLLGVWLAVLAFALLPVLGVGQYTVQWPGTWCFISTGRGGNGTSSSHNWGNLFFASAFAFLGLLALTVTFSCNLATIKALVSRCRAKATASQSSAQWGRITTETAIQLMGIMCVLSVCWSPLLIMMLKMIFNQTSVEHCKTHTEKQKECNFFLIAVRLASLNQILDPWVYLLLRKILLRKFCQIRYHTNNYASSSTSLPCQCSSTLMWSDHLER
Description: Cellular in vitro assay for determining EP3 receptor activity (human EP3 cell line, sulprostone-stimulated calcium luminescence). The settings on record: CHO cells expressing human EP3 and mitochondrial Clytin; antagonist mode, sulprostone at EC50; read-out: EP3 CHO mtCLY ANTAG IC50. In kind it is cell-based. An outline of the steps:
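Antagonist activity was measured as inhibition of the luminescent calcium signal elicited by EC50 sulprostone, following 10 min compound pretreatment. The cell line was recombinant CHO K1 co-expressing human EP3, Gα16 and the photoprotein Clytin, reconstituted with coelenterazine.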
Turning to `Cc1ccc(-c2cn3nc(C(=O)NC[C@]4(C5CC5)NC(=O)NC4=O)c(C4CC4)c3c(=O)[nH]2)cc1C` [6-457], the IC50 came out at 4.65 nM.

`CCN(CCO)CC(NC(=O)c1nn2cc(-c3ccc4ccccc4c3)[nH]c(=O)c2c1C1CC1)c1ccccc1` (stereo not drawn) [Example 1-26, 3-Cyclopropyl-N-[2-[ethyl(2-hydroxyethyl)amino]-1-phenylethyl]-6-(2-naphthyl)-4-oxo-5H-pyrazolo[1,5-a]pyrazine-2-carboxamide]: the IC50 is 1.4 nM.

Consider `O=C(N[C@@H]1CCCc2ccccc21)c1cc2c(=O)[nH]c(-c3ccc4ccccc4c3)cn2n1` [Example 2-43, 6-(2-Naphthyl)-4-oxo-N-[(7R)-1,2,3,4-tetrahydronaphthalin-1-yl]-4,5-dihydropyrazolo[1,5-a]pyrazine-2-carboxamide], for which the IC50 is 3.7 nM.

Turning to `C[C@H](NC(=O)c1nn2cc(-c3ccc(Cl)c(Cl)c3)[nH]c(=O)c2c1C1CCC1)C1CC1` [6-569], the IC50 was 1.45 nM.

Consider `CN1CC(NC(=O)c2nn3cc(-c4cc(F)c(Cl)c(F)c4)[nH]c(=O)c3c2C2CC2)(c2ccc(F)cc2)C1` [6-471], for which the IC50 came to 1.8 nM.

For `CC(C)(C)OC(=O)N1CC(NC(=O)c2cc3c(=O)[nH]c(-c4ccc5c(c4)OCCO5)cn3n2)(c2ccc(F)cc2)C1` [6-54], the IC50 worked out at 3.35 nM.

`CCn1cc(CNC(=O)c2nn3cc(-c4ccc(C)c(C)c4)[nH]c(=O)c3c2Cl)c(C)n1` [6-112]: the IC50 was determined as 1.14 nM.

Turning to `Cc1ccc(-c2cn3nc(C(=O)NC(c4ccc(F)cc4)C(F)(F)CO)cc3c(=O)[nH]2)cc1C` (racemic) [6-357], the half-inhibitory concentration (IC50) was determined as 1.95 nM.

For `CC[C@@H](C)NC(=O)c1nn2cc(-c3cnc4cccc(C)c4c3)[nH]c(=O)c2c1C(F)(F)F` [6-547], the IC50 was 7.8 nM.

For `Cc1ccc(-c2cn3nc(C(=O)N[C@H](C)C(C)C)c(C(F)(F)F)c3c(=O)[nH]2)cc1C` [6-114], the IC50 is 3.15 nM.

Consider `COc1ccc(CCNC(=O)c2cc3c(=O)[nH]c(-c4ccc(C)c(Cl)c4)cn3n2)cc1OC` [6-15], for which the IC50 was 2.37 nM.

As for `Cc1cc(-c2cn3nc(C(=O)N[C@@H](C)C4CC4)c(C(F)(F)F)c3c(=O)[nH]2)ccc1Cl` [6-214], the IC50 was 1.35 nM.

Take `Cc1cccc2ncc(-c3cn4nc(C(=O)NC(CN5CCCC5)c5ccccc5)c(C(C)C)c4c(=O)[nH]3)cc12` (stereo not drawn) [Example 4-63, 3-Isopropyl-6-(5-methylquinolin-3-yl)-4-oxo-N-[1-phenyl-2-(pyrrolidin-1-yl)ethyl]-4,5-dihydropyrazolo[1,5-a]pyrazine-2-carboxamide]: the IC50 came out at 9.45 nM.

Regarding `Cc1ccc(-c2cn3nc(C(=O)N[C@H](C)C(C)C)c(C4CC4)c3c(=O)[nH]2)cc1C` [Example 1-143, 3-Cyclopropyl-6-(3,4-dimethylphenyl)-N-[(2R)-3-methylbutan-2-yl]-4-oxo-4,5-dihydropyrazolo-[1,5-a]pyrazine-2-carboxamide], the IC50 is 1.5 nM.

Turning to `Cc1ccc(-c2cn3nc(C(=O)N[C@H](CN4CC[C@H](F)C4)c4ccccc4)cc3c(=O)[nH]2)cc1F` [6-643], the IC50 was determined as 1.95 nM.

As to `CC[C@@H](C)NC(=O)c1nn2cc(-c3ccc(C)c(C)c3)[nH]c(=O)c2c1C1CC1` [Example 1-142, N-[(2R)-Butan-2-yl]-3-cyclopropyl-6-(3,4-dimethylphenyl)-4-oxo-4,5-dihydropyrazolo[1,5-a]-pyrazine-2-carboxamide], the IC50 was 1.16 nM.

Consider `Cc1ccc(-c2cn3nc(C(=O)NCC(O)C(F)(F)F)c(C4CC4)c3c(=O)[nH]2)cc1C(F)(F)F` (single isomer, unassigned) [6-244], for which the IC50 stood at 5.55 nM.

In the case of `CC(NC(=O)c1nn2cc(-c3ccc4ccccc4c3)[nH]c(=O)c2c1C#N)c1ccc(Cl)cc1Cl` (stereo not drawn) [Example 3-58, 3-Cyano-N-[1-(2,4-dichlorophenyl)ethyl]-6-(2-naphthyl)-4-oxo-5H-pyrazolo[1,5-a]pyrazine-2-carboxamide], the IC50 amounted to 2.35 nM.

`COC[C@H](C)NC(=O)c1nn2cc(-c3ccc4ccccc4c3)[nH]c(=O)c2c1C(F)(F)F` [6-515]: the IC50 was 3 nM.

As to `COC[C@@H](NC(=O)c1cc2c(=O)[nH]c(-c3ccc(C)c(C)c3)cn2n1)c1ccccc1` [Example 1-13, 6-(3,4-Dimethylphenyl)-N-[(1S)-2-methoxy-1-phenylethyl]-4-oxo-4,5-dihydropyrazolo[1,5-a]-pyrazine-2-carboxamide], the IC50 came to 1.15 nM.

Turning to `Cc1cc(-c2cn3nc(C(=O)NC(C)c4ccccc4OC(F)F)cc3c(=O)[nH]2)ccc1C(F)(F)F` (stereo not drawn) [6-33], the IC50 amounted to 8.15 nM.

In the case of `Cc1ccc(-c2cn3nc(C(=O)N[C@H](C)CO)c(C4CCC4)c3c(=O)[nH]2)cc1F` [6-575], the IC50 worked out at 1.95 nM.

With `Cc1cc(-c2cn3nc(C(=O)N[C@@H](c4ccc(F)cc4)C(F)(F)CO)c(C(F)(F)F)c3c(=O)[nH]2)ccc1Cl` [Example 1-171, 6-(4-Chloro-3-methylphenyl)-N-[(1S)-2,2-difluoro-1-(4-fluorophenyl)-3-hydroxpropyl]-4-oxo-3-(trifluoromethyl)-4,5-dihydropyrazolo[1,5-a]pyrazine-2-carboxamide], the IC50 came to 1.03 nM.

Take `COC(=O)N1CC(NC(=O)c2cc3c(=O)[nH]c(-c4ccc5ccccc5c4)cn3n2)(c2ccc(F)cc2)C1` [Example 1-50, Methyl 3-(4-fluorophenyl)-3-({[6-(naphthalen-2-yl)-4-oxo-4,5-dihydropyrazolo[1,5-a]pyrazin-2-yl]-carbonyl}amino)azetidine-1-carboxylate]: the IC50 was determined as 3.53 nM.

On to `Cc1cc(-c2cn3nc(C(=O)N[C@H](C)C4CC4)c(C(F)(F)F)c3c(=O)[nH]2)ccc1Cl` [6-218], for which the IC50 turned out to be 1.95 nM.

Take `Cc1ccc(-c2cn3nc(C(=O)NCC(N)C(F)(F)F)c(C4CC4)c3c(=O)[nH]2)cc1C` (single isomer, unassigned) [6-433]: the IC50 is 0.76 nM.

For `CC(C)c1c(C(=O)N[C@@H](c2ccc(F)cc2)C(C)(C)O)nn2cc(-c3ccc(Cl)cc3)[nH]c(=O)c12` [6-672], the IC50 is 1.7 nM.

Regarding `Cc1c(C(=O)N[C@H](CO)c2ccccc2)nn2c(C)c(-c3ccc4ccccc4c3)[nH]c(=O)c12` [Example 3-2, N-[(1S)-2-Hydroxy-1-phenylethyl]-3,7-dimethyl-6-(naphthalen-2-yl)-4-oxo-4,5-dihydropyrazolo[1,5-a]pyrazine-2-carboxamide], the IC50 turned out to be 1.2 nM.

For `Cc1cccc2ncc(-c3cn4nc(C(=O)NC(CO)c5ccc(Br)cc5)c(C(C)C)c4c(=O)[nH]3)cc12` (stereo not drawn) [Example 4-75, N-[1-(4-Bromophenyl)-2-hydroxyethyl]-3-isopropyl-6-(5-methyl-3-quinolyl)-4-oxo-5H-pyrazolo[1,5-a]pyrazine-2-carboxamide], the IC50 stood at 1.25 nM.

As to `CCn1nccc1CNC(=O)c1nn2c(C)c(-c3ccc(C)c(C)c3)[nH]c(=O)c2c1C(F)(F)F` [6-13], the IC50 worked out at 9.3 nM.

Turning to `Cc1ccc(-c2cn3nc(C(=O)NC(C)C4CC4)c(C(F)(F)F)c3c(=O)[nH]2)cc1F` (racemic) [6-147], the IC50 was determined as 5.6 nM.

For the compound `Cc1ccc(-c2cn3nc(C(=O)N[C@H](C)C(C)(C)C)c(C4CC4)c3c(=O)[nH]2)cc1Cl` [6-281], the IC50 stood at 2.05 nM.

`Cc1c(C(=O)NC(C)c2ccc(S(C)(=O)=O)cc2)nn2c(C)c(-c3ccc4ccccc4c3)[nH]c(=O)c12` (stereo not drawn) [Example 3-23, 3,7-Dimethyl-N-[1-(4-methylsulfonylphenyl)ethyl]-6-(2-naphthyl)-4-oxo-5H-pyrazolo[1,5-a]pyrazine-2-carboxamide]: the IC50 is 3.2 nM.

As to `Cc1cc(-c2cn3nc(C(=O)NC4(c5ccc(F)cc5)CN(C)C4)c(C4CC4)c3c(=O)[nH]2)c(F)cc1Cl` [6-593], the IC50 was found to be 8.43 nM.

Regarding `COc1ccc(CNC(=O)c2nn3cc(-c4ccc5ccccc5c4)[nH]c(=O)c3c2C(C)C)cc1OC` [Example 1-10, N-(3,4-Dimethoxybenzyl)-6-(naphthalen-2-yl)-4-oxo-3-(propan-2-yl)-4,5-dihydropyrazolo[1,5-a]-pyrazine-2-carboxamide], the IC50 was determined as 0.58 nM.

In the case of `Cc1ccc(-c2cn3nc(C(=O)N[C@@H](c4ccc(F)cc4)C(F)(F)CO)c(C(F)(F)F)c3c(=O)[nH]2)cc1Cl` [6-157], the IC50 came to 0.92 nM.

Consider `Cc1cc(-c2cn3nc(C(=O)NC(C)(C)C4CC4)c(C(F)(F)F)c3c(=O)[nH]2)ccc1Cl` [6-220], for which the IC50 was determined as 1.18 nM.

Regarding `CC(C)(O)[C@@H](NC(=O)c1cc2c(=O)[nH]c(-c3ccc(Cl)c(Cl)c3)cn2n1)c1ccc(F)cc1` [6-636], the IC50 was 7.63 nM.

On to `Cn1cnc2cc(-c3cn4nc(C(=O)N[C@@H](c5ccc(F)cc5)C(C)(C)O)c(C5CC5)c4c(=O)[nH]3)ccc21` [6-599], for which the IC50 was determined as 2.1 nM.

Take `Cc1ccc(-c2cn3nc(C(=O)N[C@H](CCO)c4ccc(F)cc4)c(C(C)C)c3c(=O)[nH]2)cc1C` [Example 1-92, 6-(3,4-Dimethylphenyl)-N-[(1R)-1-(4-fluorophenyl)-3-hydroxpropyl]-4-oxo-3-(propan-2-yl)-4,5-dihydropyrazolo[1,5-a]pyrazine-2-carboxamide]: the IC50 is 0.625 nM.

On to `Cc1c(C(=O)NCc2ccccn2)nn2c(C)c(-c3ccc4ccccc4c3)[nH]c(=O)c12` [Example 3-70, 3,7-Dimethyl-6-(naphthalen-2-yl)-4-oxo-N-[(pyridin-2-yl)methyl]-4,5-dihydropyrazolo[1,5-a]pyrazine-2-carboxamide], for which the IC50 was determined as 5.45 nM.

Regarding `Cc1ccc(-c2cn3nc(C(=O)NC(C)(C)c4ccc(F)cc4)cc3c(=O)[nH]2)cc1C` [6-45], the IC50 amounted to 2.55 nM.
